Values joined by “and” are separate entries in the source; they are usually repeats but may differ in a detail not shown here. Equal entries are not always repeated.
How the values were obtained:
[1] = target: T1, TLR4/MyD88 binding (Rattus norvegicus, UniProt Q9QX05); test: TLR4/MyD88 co-immunoprecipitation in P rat VTA; type: in vivo; conditions: 15 mg/kg IP, P rats
T1 construct: from tissue; host or cells: ventral tegmental area (VTA) of alcohol-preferring (P) rats
T1 sequence (Q9QX05 26-835): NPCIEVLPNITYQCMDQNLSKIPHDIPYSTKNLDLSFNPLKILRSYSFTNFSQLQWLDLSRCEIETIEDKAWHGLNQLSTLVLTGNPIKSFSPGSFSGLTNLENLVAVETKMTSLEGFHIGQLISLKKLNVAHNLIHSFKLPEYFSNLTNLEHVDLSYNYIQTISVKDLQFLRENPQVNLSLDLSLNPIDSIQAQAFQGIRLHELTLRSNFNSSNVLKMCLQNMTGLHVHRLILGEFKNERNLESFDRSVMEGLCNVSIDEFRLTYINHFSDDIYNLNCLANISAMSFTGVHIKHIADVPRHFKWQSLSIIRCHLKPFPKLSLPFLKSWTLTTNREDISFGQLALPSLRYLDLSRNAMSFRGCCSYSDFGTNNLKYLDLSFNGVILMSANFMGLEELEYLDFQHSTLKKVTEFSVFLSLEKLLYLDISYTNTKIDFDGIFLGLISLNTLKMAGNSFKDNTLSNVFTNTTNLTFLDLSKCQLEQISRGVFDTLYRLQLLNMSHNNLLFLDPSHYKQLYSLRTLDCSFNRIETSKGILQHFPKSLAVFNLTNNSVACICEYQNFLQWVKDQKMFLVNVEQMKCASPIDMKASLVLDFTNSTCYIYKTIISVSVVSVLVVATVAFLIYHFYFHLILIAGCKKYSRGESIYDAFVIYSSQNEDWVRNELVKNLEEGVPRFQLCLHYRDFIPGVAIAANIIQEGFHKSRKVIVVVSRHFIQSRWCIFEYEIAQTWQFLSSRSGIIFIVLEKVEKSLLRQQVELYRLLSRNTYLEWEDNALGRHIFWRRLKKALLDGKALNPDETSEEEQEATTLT
Experimental: Co-Immunoprecipitation Assay RAW264.7 cells [treated with LPS (1 μg/ml), 3α,5α-THP (1 μM) or pregnenolone (1 μM)] were exposed to chemical protein crosslinking (Poulopoulos et al, 2009) at 24 hrs post-treatment. Briefly, the cells were incubated (20 min on ice) with 1 mM of the cleavable, membrane-permeable crosslinker DSP (Thermo Fisher Scientific, Cat. #PG82081). Rat VTA homogenates were incubated (20 min on ice) with 200 μM of DSP. The crosslinker was quenched in 1 M Tris buffer (pH 7.5) (to a final concentration of 10-20 mM), and the material was centrifuged at 21,000×g for 15 min. Proteins from the cells were extracted with Pierce IP Lysis Buffer (Thermo Fisher Scientific, Cat. #87787) supplemented with protease and phosphatase inhibitor cocktails (Sigma). Proteins from the VTA were extracted with CelLytic MT (dialyzable mild detergent, bicine and 150 mM NaCl; Sigma Aldrich, St. Louis, Mo., USA, Cat. #C3228) supplemented with protease and phosphatase inhibitor cocktails (Sigma) according to the manufacturers instructions. […]

[2] = test system: TLR2 signaling; test: Pam3Cys-activated TLR2 signaling in RAW264.7 cells; type: cell-based, mouse
Experimental: Because multiple TLRs signal through MD-2, […] and MyD-88, the specificity of the neurosteroid 3α,5α-THP on TLR2, TLRS and TLR7 signal activation was examined in RAW264.7 ceils (FIG. 7). Pam3Cys (10 μg/ml) activated TLR2 signaling, evidenced by increases in pCREB, pERK1/2, TRAF6 and pATF-2, that were sustained for 24 hrs and inhibited by 3α,5α-THP (1 μM) (50-60% compared to vehicle).

[3] = test system: TLR3 signal; test: Poly(I:C)-activated TLR3 signaling in RAW264.7 cells; type: cell-based, mouse; conditions: 1 μM; Poly-IC 25 μg/ml; 24 hrs
[4] = test system: CX3CL1; test: CX3CL1 expression in human macrophages; type: cell-based; conditions: 1 μM

CC(=O)[C@H]1CC[C@H]2[C@@H]3CC[C@H]4C[C@H](O)CC[C@]4(C)[C@H]3CC[C@]12C [3α,5α-THP, (3α,5α)3-hydroxypregnan-20-one]
inhibition of TLR4/MyD88 binding in VTA [1]: 43.5±5.4% and ~40% | effect of Pam3Cys on pCREB, pERK1/2, pATF2 and TRAF6 ([2]; 1 μM, Pam3Cys 10 μg/ml, harvested after 24 hrs): completely inhibited | inhibition at 1 µM ([2]; Mus musculus, RAW264.7, Pam3Cys 10 μg/ml, 24 hrs, compared to vehicle, read-out: inhibition of Pam3Cys-induced increases in pCREB, pERK1/2, TRAF6 and pATF-2): 50 to 60% | effect of Poly(I:C) on IP-10 (CXCL10) expression [3]: not altered | expression of the anti-inflammatory cytokine CX3CL1 [4]: increases expression
